# Reference: PubChem BioAssay AID743259 (The Scripps Research Institute Molecular Screening Center, 2014)
# pIC50: −log10 of the molar value. Active and inactive are the calls of the source. How the calls were made is not given here.
# Biological target: Disintegrin and metalloproteinase domain-containing protein 10 (Homo sapiens) (UniProt O14672)
# Assay: inhibition of ADAM10 peptide cleavage – biochemical, FRET peptide substrate, recombinant human ADAM10, selectivity assay for ADAM17 exosite inhibitor project, dose response (AID 743259)
# Disintegrin and metalloproteinase domain-containing protein 10 (Homo sapiens), sequence (O14672 214-748 limits assumed): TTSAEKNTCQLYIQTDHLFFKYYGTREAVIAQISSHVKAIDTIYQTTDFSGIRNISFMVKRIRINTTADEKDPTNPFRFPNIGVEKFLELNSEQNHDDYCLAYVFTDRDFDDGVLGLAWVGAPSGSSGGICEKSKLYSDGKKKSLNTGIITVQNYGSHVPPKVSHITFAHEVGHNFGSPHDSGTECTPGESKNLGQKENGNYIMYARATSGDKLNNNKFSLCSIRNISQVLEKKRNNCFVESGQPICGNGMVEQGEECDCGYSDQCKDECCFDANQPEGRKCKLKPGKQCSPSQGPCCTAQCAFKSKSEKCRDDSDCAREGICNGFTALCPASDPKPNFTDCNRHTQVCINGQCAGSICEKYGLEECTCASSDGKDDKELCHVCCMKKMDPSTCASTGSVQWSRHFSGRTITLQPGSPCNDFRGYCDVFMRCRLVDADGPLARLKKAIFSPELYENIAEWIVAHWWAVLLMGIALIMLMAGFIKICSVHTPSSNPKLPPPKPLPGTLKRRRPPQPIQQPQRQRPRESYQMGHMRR
SMILES,IC50,pIC50
CC(=O)c1cccc(NC(=O)C(OC(=O)c2ccccc2NS(=O)(=O)c2cccs2)c2ccccc2)c1 (centres undefined),> 69.5 µM (inactive),–
C/C(=N\N=C(/N)SC1CC(=O)N(c2ccccc2)C1=O)c1cccs1 (centres undefined),–,5.00
CCOc1ccc(NC(=O)CC2SC(=O)N(c3ccccc3)C2=O)cc1 (centres undefined),inactive,–
C=C(C)CN1CCN(S(=O)(=O)c2ccc(C)c(N(C)S(=O)(=O)c3ccc(C)cc3)c2C)CC1,> 69.5 µM (inactive),–
Cc1ccccc1NC(C)C(=O)N/N=C/c1ccccc1OCc1cccc(Br)c1 (centres undefined),> 69.5 µM (inactive),–
CC(=NNC(=O)CSc1nnc(-c2ccc(C(C)(C)C)cc2)n1-c1ccccc1)c1cccc2ccccc12,> 69.5 µM (inactive),–
O=C1OCCN1C(=O)[C@H]1[C@H](c2ccc([N+](=O)[O-])cc2)C(c2ccccc2)=NN1c1ccc(Br)cc1,> 69.5 µM (inactive),–
C/C(=N\N=C(/N)SC1CC(=O)N(c2ccc(Br)cc2)C1=O)c1cccs1 (centres undefined),inactive,–
COc1cccc(C2C(C#N)=C(N)Oc3c2oc(CO)cc3=O)c1 (centres undefined),> 69.5 µM (inactive),–
COC(=O)c1cccc(Cn2c(Cl)c(/C=N/Nc3ccccc3C)sc2=O)c1,> 69.5 µM (inactive),–
CC(C)(C)c1ccc(OCc2nc(-c3ccccn3)no2)c(Br)c1,inactive,–

# Second part, the compound after the results:
IC50,pIC50,SMILES
> 69.5 µM (inactive),–,COCCN=c1scc(-c2cc(OC)ccc2OC)n1/N=C/c1c[nH]c2ccccc12
inactive,–,CCCOC(=O)c1ccc(Oc2cn[nH]c2-c2ccc(OCC)cc2O)cc1
–,5.04,Oc1c(C(c2ccccn2)N2CCCCC2)cc(Cl)c2cccnc12 (centres undefined)
> 69.5 µM (inactive),–,COc1ccc(N(CC(O)Cn2c3ccccc3c3ccccc32)S(=O)(=O)c2ccccc2)cc1 (centres undefined)
> 69.5 µM (inactive),–,Cc1cc(SCC(=O)c2ccc(O)c(O)c2)n2nc(C)c(-c3ccccc3)c2n1
> 69.5 µM (inactive),–,O=C(NCC1CCCO1)C(c1cccs1)N(Cc1ccccc1)C(=O)c1ccc(-c2ccccc2)[nH]1 (centres undefined)
> 69.5 µM (inactive),–,COCCN=c1scc(-c2cc(OC)c(OC)c(OC)c2)n1/N=C/c1c(C)[nH]c2ccccc12
inactive,–,O=C(CC1SC(=O)N(c2ccccc2)C1=O)Nc1ccccc1 (centres undefined)
